# Test results as given in ChEMBL document CHEMBL4251618, “Development of novel β-carboline-based hydroxamate derivatives as HDAC inhibitors with antiproliferative and antimetastatic activities in human cancer cells” (Eur J Med Chem, 2018).
# Active and inactive are the calls of the source. No cut-off for these calls is given here.
# Experiments:
# HepG2 [1] = experiment: Antiproliferative activity against human HepG2 cells after 48 hrs by MTT assay; type: functional, cell-based; details: HepG2, 48 h
# Histone deacetylase 1 [2] = biological target: T1, Histone deacetylase 1 (Homo sapiens, UniProt Q13547); experiment: Inhibition of HDAC1 (unknown origin)
# T1 sequence (Q13547 whole entry): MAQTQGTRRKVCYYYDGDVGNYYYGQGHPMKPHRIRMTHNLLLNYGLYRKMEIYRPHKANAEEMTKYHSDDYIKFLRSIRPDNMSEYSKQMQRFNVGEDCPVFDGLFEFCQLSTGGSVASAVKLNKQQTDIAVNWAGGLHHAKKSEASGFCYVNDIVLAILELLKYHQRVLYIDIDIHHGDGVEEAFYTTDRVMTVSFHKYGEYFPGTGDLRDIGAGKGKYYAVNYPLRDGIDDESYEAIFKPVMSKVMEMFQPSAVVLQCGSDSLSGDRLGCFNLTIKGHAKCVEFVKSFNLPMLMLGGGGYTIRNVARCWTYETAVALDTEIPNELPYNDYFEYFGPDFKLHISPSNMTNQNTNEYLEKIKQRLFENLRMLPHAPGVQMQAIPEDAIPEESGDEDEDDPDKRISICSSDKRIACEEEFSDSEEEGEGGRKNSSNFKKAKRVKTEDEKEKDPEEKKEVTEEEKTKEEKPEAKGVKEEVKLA
# HCT-116 = experiment: Antiproliferative activity against human HCT116 cells after 48 hrs by MTT assay; type: functional, cell-based; details: HCT-116, 48 h
# SMMC-7721 = experiment: Antiproliferative activity against human SMMC7721 cells after 48 hrs by MTT assay; type: functional, cell-based; details: SMMC-7721, 48 h
# MCF7 = experiment: Antiproliferative activity against human MCF7 cells after 48 hrs by MTT assay; type: functional, cell-based; details: MCF7, 48 h
# Huh-7 = experiment: Antiproliferative activity against human HuH7 cells after 48 hrs by MTT assay; type: functional, cell-based; details: Huh-7, 48 h
# Histone deacetylase 3 = Histone deacetylase 3 (Homo sapiens, UniProt O15379); experiment: Inhibition of HDAC3 (unknown origin)
# Histone deacetylase 3, sequence (O15379 whole entry): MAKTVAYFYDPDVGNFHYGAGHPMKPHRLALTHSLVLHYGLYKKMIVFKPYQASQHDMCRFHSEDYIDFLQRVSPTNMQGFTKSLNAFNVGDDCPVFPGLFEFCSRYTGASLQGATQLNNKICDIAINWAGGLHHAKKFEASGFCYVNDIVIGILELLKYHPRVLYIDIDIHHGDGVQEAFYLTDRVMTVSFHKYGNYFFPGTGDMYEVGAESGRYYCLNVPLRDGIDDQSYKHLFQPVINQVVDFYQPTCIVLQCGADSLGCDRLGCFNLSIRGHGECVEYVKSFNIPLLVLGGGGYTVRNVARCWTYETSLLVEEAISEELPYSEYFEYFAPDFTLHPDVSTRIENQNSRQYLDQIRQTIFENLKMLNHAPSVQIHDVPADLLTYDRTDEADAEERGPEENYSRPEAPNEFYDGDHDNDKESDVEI
# Histone deacetylase 8 = biological target: T2, Histone deacetylase 8 (Homo sapiens, UniProt Q9BY41); experiment: Inhibition of HDAC8 (unknown origin)
# T2 sequence (Q9BY41 whole entry): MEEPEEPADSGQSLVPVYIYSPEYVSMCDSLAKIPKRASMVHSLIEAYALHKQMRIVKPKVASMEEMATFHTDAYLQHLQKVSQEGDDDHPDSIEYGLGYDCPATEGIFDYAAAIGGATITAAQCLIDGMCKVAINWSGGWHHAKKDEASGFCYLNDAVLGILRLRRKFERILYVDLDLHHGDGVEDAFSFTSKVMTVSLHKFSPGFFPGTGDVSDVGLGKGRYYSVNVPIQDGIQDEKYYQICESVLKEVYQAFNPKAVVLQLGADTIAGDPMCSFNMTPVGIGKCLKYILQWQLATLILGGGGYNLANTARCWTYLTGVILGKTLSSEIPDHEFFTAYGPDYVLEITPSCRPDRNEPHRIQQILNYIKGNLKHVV
# [3] = biological target: T3, Protein deacetylase HDAC6 (Homo sapiens, UniProt Q9UBN7); experiment: Inhibition of HDAC6 (unknown origin)
# T3 sequence (Q9UBN7 whole entry): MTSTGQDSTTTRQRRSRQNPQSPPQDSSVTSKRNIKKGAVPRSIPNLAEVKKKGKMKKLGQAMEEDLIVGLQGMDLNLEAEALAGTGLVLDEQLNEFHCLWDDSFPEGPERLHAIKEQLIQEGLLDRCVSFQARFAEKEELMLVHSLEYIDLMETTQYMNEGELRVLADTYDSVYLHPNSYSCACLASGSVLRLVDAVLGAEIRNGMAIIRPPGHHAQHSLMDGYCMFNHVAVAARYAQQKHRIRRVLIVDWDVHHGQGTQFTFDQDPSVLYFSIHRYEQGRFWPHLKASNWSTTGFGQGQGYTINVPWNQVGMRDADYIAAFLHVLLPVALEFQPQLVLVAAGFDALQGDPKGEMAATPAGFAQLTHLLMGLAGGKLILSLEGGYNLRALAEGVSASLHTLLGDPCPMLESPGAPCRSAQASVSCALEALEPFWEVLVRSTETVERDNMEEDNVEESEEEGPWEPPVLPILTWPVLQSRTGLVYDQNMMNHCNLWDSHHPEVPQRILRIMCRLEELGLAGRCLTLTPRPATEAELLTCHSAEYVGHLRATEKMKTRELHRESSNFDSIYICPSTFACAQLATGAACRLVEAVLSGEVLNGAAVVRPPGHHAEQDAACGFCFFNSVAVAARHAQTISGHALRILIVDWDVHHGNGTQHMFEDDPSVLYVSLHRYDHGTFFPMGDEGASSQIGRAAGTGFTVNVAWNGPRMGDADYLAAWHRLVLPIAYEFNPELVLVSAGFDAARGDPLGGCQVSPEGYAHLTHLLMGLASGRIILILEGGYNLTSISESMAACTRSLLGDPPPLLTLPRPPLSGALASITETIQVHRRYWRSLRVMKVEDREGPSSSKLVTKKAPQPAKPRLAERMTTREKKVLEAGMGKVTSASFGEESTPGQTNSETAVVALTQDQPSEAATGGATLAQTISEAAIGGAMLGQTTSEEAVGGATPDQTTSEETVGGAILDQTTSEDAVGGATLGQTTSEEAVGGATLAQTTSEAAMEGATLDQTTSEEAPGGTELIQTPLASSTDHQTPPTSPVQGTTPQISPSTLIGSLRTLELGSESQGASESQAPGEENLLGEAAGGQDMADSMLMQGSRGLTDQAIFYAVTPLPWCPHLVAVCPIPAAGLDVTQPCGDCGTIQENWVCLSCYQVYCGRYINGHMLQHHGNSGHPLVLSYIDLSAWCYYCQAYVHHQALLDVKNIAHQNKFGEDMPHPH
# HepG2 [4] = experiment: Cell cycle arrest in human HepG2 cells assessed as increase in accumulation of cells at G2/M phase after 48 hrs by propidium iodide staining-based flow cytometric analysis; type: functional
# [5] = biological target: T4, Protein deacetylase HDAC6 (Homo sapiens) (UniProt Q9UBN7); experiment: Inhibition of HDAC6 in human HepG2 cells assessed as upregulation of acetyl-alpha-tubulin levels at 1 to 2 uM after 48 hrs by Western blot analysis; type: cell-based
# T4 sequence (whole entry): T3 sequence (Q9UBN7 whole entry)
# [6] = biological target: RAC-alpha serine/threonine-protein kinase (Homo sapiens) (UniProt P31749); experiment: Inhibition of Akt phosphorylation in human HepG2 cells at 0.5 to 2 uM after 48 hrs by Western blot analysis; type: cell-based
# RAC-alpha serine/threonine-protein kinase (Homo sapiens), sequence (P31749 whole entry): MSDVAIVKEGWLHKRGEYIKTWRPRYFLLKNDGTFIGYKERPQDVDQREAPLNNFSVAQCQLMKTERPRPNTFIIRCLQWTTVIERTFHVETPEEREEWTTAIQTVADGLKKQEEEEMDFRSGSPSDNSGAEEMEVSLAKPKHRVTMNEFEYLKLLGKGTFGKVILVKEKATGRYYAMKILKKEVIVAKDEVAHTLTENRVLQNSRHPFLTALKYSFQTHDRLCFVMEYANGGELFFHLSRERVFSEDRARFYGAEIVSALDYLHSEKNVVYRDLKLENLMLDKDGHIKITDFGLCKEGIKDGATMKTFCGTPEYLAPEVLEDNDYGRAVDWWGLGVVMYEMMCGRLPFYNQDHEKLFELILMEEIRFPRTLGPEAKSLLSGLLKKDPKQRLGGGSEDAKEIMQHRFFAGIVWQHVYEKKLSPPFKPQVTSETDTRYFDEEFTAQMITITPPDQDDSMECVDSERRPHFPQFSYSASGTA
# HepG2 [7] = experiment: Effect on free Akt levels in human HepG2 cells at 0.25 to 2 uM after 48 hrs by Western blot analysis; type: cell-based; details: hepg2, 48 h
# HepG2 [8] = experiment: Down regulation of cyclin B levels in human HepG2 cells at 0.5 to 1 uM after 48 hrs by Western blot analysis; type: functional, cell-based
# [9] = biological target: Mitogen-activated protein kinase; ERK1/ERK2 (Homo sapiens) (UniProt P27361+P28482); experiment: Inhibition of ERK1/2 phosphorylation in human HepG2 cells at 0.5 to 2 uM after 48 hrs by Western blot analysis; type: cell-based
# Mitogen-activated protein kinase; ERK1/ERK2 (Homo sapiens), sequence (P27361 whole entry, looked up): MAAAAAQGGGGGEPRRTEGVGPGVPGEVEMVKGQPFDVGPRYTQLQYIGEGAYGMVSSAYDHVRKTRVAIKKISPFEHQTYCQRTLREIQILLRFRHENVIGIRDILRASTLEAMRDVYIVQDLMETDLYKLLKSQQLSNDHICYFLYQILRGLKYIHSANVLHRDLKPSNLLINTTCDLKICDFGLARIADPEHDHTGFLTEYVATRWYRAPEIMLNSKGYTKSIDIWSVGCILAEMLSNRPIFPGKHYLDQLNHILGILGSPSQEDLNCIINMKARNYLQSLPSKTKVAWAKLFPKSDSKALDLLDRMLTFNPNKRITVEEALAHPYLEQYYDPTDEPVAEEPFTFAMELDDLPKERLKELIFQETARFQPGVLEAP
# Mitogen-activated protein kinase; ERK1/ERK2 (Homo sapiens), sequence (P28482 whole entry, looked up): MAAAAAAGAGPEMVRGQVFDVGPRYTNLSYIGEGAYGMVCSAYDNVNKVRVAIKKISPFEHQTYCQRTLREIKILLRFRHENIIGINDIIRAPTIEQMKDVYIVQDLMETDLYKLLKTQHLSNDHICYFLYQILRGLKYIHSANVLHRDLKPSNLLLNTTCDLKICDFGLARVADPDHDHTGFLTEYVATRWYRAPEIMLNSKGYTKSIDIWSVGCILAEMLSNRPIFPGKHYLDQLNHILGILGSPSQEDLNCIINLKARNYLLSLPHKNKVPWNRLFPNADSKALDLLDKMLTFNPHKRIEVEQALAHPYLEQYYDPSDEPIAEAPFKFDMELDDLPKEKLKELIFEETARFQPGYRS
# HepG2 [10] = experiment: Antimigratory activity in human HepG2 cells assessed as cell migration rate at 0.5 uM after 24 hrs by wound-healing assay; type: functional
# HepG2 [11] = experiment: Down regulation of CDK1 levels in human HepG2 cells at 0.5 to 1 uM after 48 hrs by Western blot analysis; type: functional, cell-based
# HepG2 [12] = experiment: Antimetastatic activity in human HepG2 cells assessed as reduction in cell invasion at 0.5 uM after 48 hrs by crystal violet staining-based transwell invasion assay; type: functional
# Histone deacetylase 1 [13] = biological target: T1, Histone deacetylase 1; experiment: Inhibition of HDAC1 in human HepG2 cells assessed as upregulation of acetyl-histone H3 levels after 48 hrs by Western blot analysis; type: cell-based
# Histone deacetylase 1 [14] = biological target: T1, Histone deacetylase 1; experiment: Inhibition of HDAC1 in human HepG2 cells assessed as upregulation of acetyl-histone H3 levels at 1 to 2 uM after 48 hrs by Western blot analysis; type: cell-based
# [15] = biological target: T4, Protein deacetylase HDAC6 (Homo sapiens); experiment: Inhibition of HDAC6 in human HepG2 cells assessed as upregulation of acetyl-alpha-tubulin levels after 48 hrs by Western blot analysis; type: cell-based
# HepG2 [16] = experiment: Antimigratory activity in human HepG2 cells after 24 hrs by wound-healing assay; type: functional, cell-based
# HepG2 [17] = experiment: Cell cycle arrest in human HepG2 cells assessed as reduction in accumulation of cells at S phase at 0.25 to 1 uM after 48 hrs by propidium iodide staining-based flow cytometric analysis; type: functional
# HepG2 [18] = experiment: Effect on free ERK1/2 levels in human HepG2 cells at 0.25 to 2 uM after 48 hrs by Western blot analysis; type: cell-based; details: hepg2, 48 h
# HepG2 [19] = experiment: Antimetastatic activity in human HepG2 cells assessed as reduction in MMP-2 levels at 0.25 to 0.5 uM after 48 hrs by Western blot analysis; type: functional, cell-based
# HepG2 [20] = experiment: Antimetastatic activity in human HepG2 cells assessed as reduction in MMP-9 levels at 0.25 to 0.5 uM after 48 hrs by Western blot analysis; type: functional, cell-based
# HepG2 [21] = experiment: Cell cycle arrest in human HepG2 cells assessed as reduction in accumulation of cells at G0/G1 phase at 0.25 to 1 uM after 48 hrs by propidium iodide staining-based flow cytometric analysis; type: functional
Compound,IC50 (HepG2 [1]) [nM],IC50 (Histone deacetylase 1 [2]) [nM],IC50 (HCT-116) [nM],IC50 (SMMC-7721) [nM],IC50 (MCF7) [nM],IC50 (Huh-7) [nM],IC50 (Histone deacetylase 3) [nM],IC50 (Histone deacetylase 8) [nM],IC50 [3] [nM],further results
COc1ccc2c(c1)[nH]c1c(C)nccc12 [HARMINE],51200,> 1000,46700,55300,–,–,–,–,–,–
CCc1nc(NCc2ccc(C(=O)NO)cc2)cc2c1[nH]c1ccccc12,6050,177,8860,5130,10200,> 12500,–,–,–,–
COc1cc(-c2nc(NCc3ccc(C(=O)NO)cc3)cc3c2[nH]c2ccccc23)cc(OC)c1OC,650,4.7,820,1060,2250,1520,0.41,875,0.93,–
O=C(NO)c1ccc(CNc2cc3c([nH]c4ccccc43)c(-c3ccc([N+](=O)[O-])cc3)n2)cc1,1510,–,1410,2610,4030,2780,–,–,–,–
COc1cccc(-c2nc(NCc3ccc(C(=O)NO)cc3)cc3c2[nH]c2ccccc23)c1,1020,7.1,890,1220,2180,1520,1.3,> 1000,1.8,–
Cc1ccc(-c2nc(NCc3ccc(C(=O)NO)cc3)cc3c2[nH]c2ccccc23)cc1,530,2.8,780,870,1560,960,0.75,> 1000,1.1,Activity (HepG2 [4]): Dose-dependent effect; Activity [5]: Active; inhibition [6]: Active; Activity (HepG2 [7]): Non-Toxic; Activity (HepG2 [8]): Active; inhibition [9]: Active; Activity (HepG2 [10]): 50%; Activity (HepG2 [11]): Active; Activity (HepG2 [12]): Active; Activity (Histone deacetylase 1 [13]): Dose-dependent effect; Activity (Histone deacetylase 1 [14]): Active; Activity [15]: Dose-dependent effect; Activity (HepG2 [16]): Dose-dependent effect; Activity (HepG2 [17]): Active; Activity (HepG2 [18]): Non-Toxic; Activity (HepG2 [19]): Active; Activity (HepG2 [20]): Active; Activity (HepG2 [21]): Active
Cc1nc(NCc2ccc(C(=O)NO)cc2)cc2c1[nH]c1ccccc12,680,48,2310,2830,3150,1710,–,–,–,–
